Columns and labels:
2 non-tumor cell lines = test: Combined treatment survival in non-tumor cell lines (FIG. 6, 12); format: cell-based, human; conditions: AsiDNA 4.8 μM, olaparib 0.1 and 1 μM; 6 days
Experimental: Efficacy of AsiDNA (4. 8 μM), olaparib (0, 0.1 and 1 μM) or both was monitored 6 days after treatment by cell counting after trypan blue labeling. (A) Percentage of living cells relative to non-treated condition (NT). (B) Percentage of dead cells. Data are expressed as mean+Sc.D. of at least 2 independent experiments. Dotted lines indicate the calculated cell survivals if additivity between AsiDNA and olaparib.
(A) Percentage of living cells relative to non-treated condition (NT). (B) Percentage of dead cells. Dotted lines indicate the calculated cell survivals if additivity between AsiDNA and veliparib.
The inventors monitored cell survival to combined treatment of 3 BC and 2 non-tumor cell lines with different sensitivities to Ola and AsiDNA alone (FIG. 6; Table 1).

HeLa CTL SX = test: Cell survival, trypan blue counting; format: cell-based, human; conditions: 4.80 μM of AsiDNA and/or 0.1 μM of Ola; day 6 after treatment
Experimental: (§4) Cells were grown according to the supplier's instructions. Cell lines were maintained at 37° C. in a humidified atmosphere at 5% CO2.
(§5) AsiDNA or PARPi cytotoxicity was measured by relative survival and cell death quantification. Adherent cells were seeded in 24-well culture plates at appropriate densities and incubated 24 hours at 37° C. before AsiDNA and/or PARPi addition. Cells were harvested day 6aftertreatment, stained with 0.4% trypan blue (Sigma Aldrich, Saint-Louis, USA) and counted with a Burker chamber. Cell survival was calculated as ratio of living treated cells to living mock-treated cells. Cell death was calculated as the number of dead cells on the total number of counted cells. Additivity of the toxicity was calculated by the product of cell survivals to AsiDNA and cell survivals to PARPi.

Hep2 = test: Cell survival, trypan blue counting; format: cell-based, human; conditions: 4.80 μM of AsiDNA and/or 0.1 μM of Ola; day 6 after treatment
Experimental: as §4, §5

[1] = tested on: mutants with one repair defect (PARP1, BRCA1, BRCA2, Ku70, DNA-PKcs); test: Single treatments in isogenic pairs with DNA repair mutants; conditions: 4.80 μM AsiDNA or 0.1 μM Ola
Experimental: To determine if the efficacy of the combination of AsiDNA with Ola was not restricted to BC, the inventors analyzed the sensitivity of different cancer cell lines including glioblastoma, cervical cancer, colon cancer, blood cancer and melanoma.
as §4, §5

MCF10A non-tumor cells = test: Alkaline comet assay; format: cell-based, human; conditions: 24 h; olaparib (1 μM) alone or with AsiDNA (16 μM)
Experimental: (§1) To dissect this cytotoxic synergy, the inventors examined the effect of AsiDNA, Ola or both on DNA repair activities. […] Pan-nuclear phosphorylation of H2AX is thought to be involved in the inhibition of HR and NHEJ repair enzyme recruitment by AsiDNA. […] This increase could account for the efficient toxicity of the combination in MDAMB231 cells.
(§2) Cells treated with AsiDNA (16 μM), olaparib (1 μM) or both were suspended in 0.5% low melting point agarose in DMEM and transferred onto a frosted glass microscope slide precoated with a layer of 0.5% normal melting point agarose. Slides were immersed in lysis solution [2.5 mol/L NaCl, 100 mmol/L EDTA, 10 mmol/L Tris, 1% sodium lauryl sarcosinate, 10% DMSO, 1% Triton X-100 (pH 10)] at 4jC for 1 h, placed in a electrophoresis tank containing 0.3 mol/L NaOH (pH 13) and 1 mmol/L EDTA for 40 min, electrophoresis for 25 min at 25 V (300 mA), washed with neutral buffer [400 mmol/L Tris-HCl (pH 7.5)], and stained with 20 Ag/mL ethidium bromide. The variables of the “comets” were quantified with the use of the software Comet Assay 2 (Perceptive Instrument). Triplicate slides were processed for each experimental point. The tail moment is defined as the product of the percentage of DNA in the tail and the displacement between the head and the tail of the comet.

MDAMB231 tumor cells = test: Alkaline comet assay; format: cell-based, human; conditions: 24 h; AsiDNA (16 μM) or olaparib (1 μM) alone
Experimental: as §1, §2

MCF10A = test: Cell survival, trypan blue counting; format: cell-based, human; conditions: 4.80 μM of AsiDNA and/or 0.1 μM of Ola; day 6 after treatment
Experimental: as §4, §5

MDAMB231 = test: Cell survival, trypan blue counting; format: cell-based, human
Experimental: (§3) Cells were grown according to the supplier's instructions.

HCC1187 = test: Cell survival, trypan blue counting; format: cell-based, human
Experimental: as §3

BC173 = test: Cell survival, trypan blue counting; format: cell-based, human
Experimental: as §3

MDAMB468 = test: Cell survival, trypan blue counting; format: cell-based, human
Experimental: as §3

HCT116 KU70^+/− = test: Cell survival, trypan blue counting; format: cell-based, human; conditions: 4.80 μM of AsiDNA and/or 0.1 μM of Ola; day 6 after treatment
Experimental: as §4, §5

HCC38 = test: Cell survival, trypan blue counting; format: cell-based, human; conditions: 4.80 μM of AsiDNA and/or 0.1 μM of Ola; day 6 after treatment
Experimental: as §4, §5

[2] = tested on: 3 immortalized mammary cell lines (MCF10A, MCF12A and 184B5); test: Cell death and proliferation in non-tumor controls; format: cell-based, human; conditions: 0.1 μM for Ola and 4.8 μM for AsiDNA
Experimental: Efficacy of Ola and AsiDNA was assessed by measuring cell death and proliferation in 12BC cell lines including 4BRCA-mutated cell lines (FIGS. 4A and B and FIG. 5). In addition, HeLa cells silenced for BRCA1 or BRCA2 genes were used as a control of BRCA mutation factor and 3 immortalized mammary cell lines (MCF10A, MCF12A and 184B5) as non-tumor controls. The concentration of the drugs (0.1 μM for Ola and 4.8 μM for AsiDNA) were chosen based on the 75-80% survival in the BC227 BRCA2^−/− mutant. […] Ola and AsiDNA treatments had no effect on the three control non-tumor cell lines.
as §3

[3] = 0.1 μM Ola, 4.8 μM AsiDNA, sensitive = difference in % dead cells higher than two-fold
[4] = 4.80 μM of AsiDNA and/or 0.1 μM of Ola, day 6 after treatment

## O=C(c1cc(Cc2n[nH]c(=O)c3ccccc23)ccc1F)N1CCN(C(=O)C2CC2)CC1 [Olaparib, 4-[(3-[(4-cyclopropylcarbonyl)piperazin-4-yl]carbonyl)-4-fluorophenyl]methyl(2H)-phthalazin-1-one]
2 non-tumor cell lines
  sensitivity to combined and single treatments: insensitive
HeLa CTL SX
  Survival (%/NT): 105.1 %/NT
Hep2
  Survival (%/NT): 101 %/NT
[1]
  cytotoxicity of single treatments to DNA repair mutants: essentially restricted to the BRCA mutants
MCF10A non-tumor cells
  DNA damage (alkaline comet assay): slight increase of DNA damage
MDAMB231 tumor cells
  DNA damage (alkaline comet assay): induced accumulation of damage
MCF10A
  Survival (%/NT): 86.2 %/NT
MDAMB231; [3]
  sensitivity to treatment: resistant to both treatments
MDAMB231; [4]
  Survival (%/NT): 90.9 %/NT
MDAMB231; Homo sapiens, MDA-MB-231, MDAMB231, PARPi dose giving 80% survival
  IC20: 1000 nM
MDAMB231; Homo sapiens, MDA-MB-231, MDAMB231, PARPi dose resulting in 50% survival
  IC50: 3700 nM
HCC1187; [3]
  sensitivity to treatment: sensitive only to Ola
HCC1187; [4]
  Survival (%/NT): 61.5 %/NT
BC173; [3]
  sensitivity to treatment: sensitive only to AsiDNA
BC173; [4]
  Survival (%/NT): 94.4 %/NT
MDAMB468; [3]
  sensitivity to treatment: sensitive to both treatments
MDAMB468; [4]
  Survival (%/NT): 68.3 %/NT
HCT116 KU70^+/−
  Survival (%/NT): 88.6 %/NT
HCC38
  Survival (%/NT): 66.7 %/NT
[2]
  effect on cell death and proliferation: no effect

From patent US10563197B2, “Use of a combination of Dbait molecule and PARP inhibitors to treat cancer” (INSTITUT CURIE, priority 2015, dated 2020)
